Results on one compound are retold here after patent US20260085253A1, “LILY OF THE VALLEY ODORANT” (Firmenich SA, priority 2022, published 2026).

One assay deals with Aedes aegypti. Kind of assay: Warm Body assay: repellent efficacy on mosquitoes. The following applies: 100 μL on warm body. The assay is classed as in vivo. Here is the method: a) Warm Body Assay: Small-Scale Test Used to Screen the Repellent Efficacy on Mosquitoes at Different Concentrations. […] Anopheles gambiae is also a model organism as it is anthropophilic and transmits malaria. The controlling effect according to the present invention was assessed using an adapted Warm Body assay as defined in Kröber T, Kessler S, FreiJ, Bourquin M, Guerin P M. 2010. J Am Mosq Control Assoc. 26:381-386. In this in-vitro assay the number of mosquito landing on a warm body, simulating an attractive host treated with the tested stimuli, was measured in order to assess the repellence effect. The published protocol has been adapted as the switch from Anopheles gambiae to Aedes aegypti led to a decrease of mosquitoes placed in the tested cage due to the size difference (i.e. 30 mosquitoes instead of 50) and to an increase of lighting since Ae. aegypti is a diurnal mosquitoes (i.e. 150 lux instead of 4 lux). On the sandblasted glass Petri dish covering the warm body (28.3 cm^2), 100 μL of the compounds diluted at 5-8 concentrations in ethanol was applied. The number of mosquito landing on the warm body was counted for each stimulus and pure ethanol (solvent) as control. The stimuli tested were stim A (3-(4-isopropyl-2-methylphenyl)propanal at 96%) and stim B (a composition of matter comprising 3-(4-isopropyl-2-methylphenyl)propanal, 3-(2-isopropyl-4-methylphenyl)propanal and 3-(2-methyl-5-propan-2-ylphenyl)propanal at 88%, 5% and 2%, respectively) diluted in ethanol. Five to eight concentrations were assessed on each stimulus, missing data points mentioned as n.d. The mean number of mosquito landings with the solvent only (0 mg/mL) is equal to 64.5±10.1 landings in two minutes.

Another assay concerns Ixodes ricinus. Kind of assay: Warm Plate assay: repellent efficacy on ticks. The following applies: for Percentage of repellence of ticks Ixodes ricinus on the warm plate: n = 12, last stage nymphs. The assay is classed as in vivo. Here is the method: b) Warm Plate Assay: Small-Scale Test Used to Screen the Repellent Efficacy on Ticks at Different Concentrations.
Repellent efficacy of the different compounds was assessed against the sheep tick, Ixodes ricinus L that can transmit both bacterial and viral pathogens. I. ricinus is one of the recommended model organisms mentioned by the Guidance on the European […] [Vol IL, Efficacy—Assessment & Evaluation (Parts B+C), v6.0, Août 2023]. Observations of repellent efficacy were made on last stage nymphs.
The repellent efficacy was assessed using the protocol of the in-vitro Warm Plate Assay as defined in Kröber T, Bourquin M, Guerin P M. 2013. Pestic. Biochem. Phys. 107(2):160-168.
Ticks had the choice of crossing a zone with 3-(4-isopropyl-2-methylphenyl)propanal (96%) applied or to stay on their refuge without any compound applied. To motivate ticks' movement, the warm plate was heated at 33° C. (to mimic vertebrate skin temperature) and hold in a favourable environment (23° C., 85% RH).
The stimulus tested was stim A (3-(4-isopropyl-2-methylphenyl)propanal at 96%) diluted in ethanol. Twelve different ticks were tested for each of the four concentrations.

For `Cc1cc(C(C)C)ccc1CCC=O` [Stim A, 3-(4-isopropyl-2-methylphenyl)propanal], the “Percentage of repellence of mosquitoes Aedes aegypti landing on the warm body” value with Aedes aegypti (0.0032 mg/mL in ethanol) is 20%; with Aedes aegypti (0.016 mg/mL in ethanol), 41%; in the assay with Aedes aegypti (0.08 mg/mL in ethanol) it was 40%; in the assay on Aedes aegypti (0.4 mg/mL in ethanol), 63%; in the assay with Aedes aegypti (2 mg/mL in ethanol), 71%; in the assay with Aedes aegypti (10 mg/mL in ethanol), 90%. In addition, the figures for the “Percentage of repellence of ticks Ixodes ricinus on the warm plate” value with Ixodes ricinus (0.4 mg/mL in ethanol), in the assay with Ixodes ricinus (2 mg/mL in ethanol) and in the assay with Ixodes ricinus (10 mg/mL in ethanol) were 25.0%, 100.0% and 100.0%, respectively. In addition, the “repellence of ticks Ixodes ricinus on the warm plate (in words)” value with Ixodes ricinus (as soon as 0.02% applied on the warm plate) is listed as “All ticks were repelled”.
